# Data taken from PMC8510124, “Design, Synthesis, Biological Evaluation and In Silico Study of Benzyloxybenzaldehyde Derivatives as Selective ALDH1A3 Inhibitors” (Molecules, 2021).
# How the values were obtained:
# ALDH1A3 [1] = biological target: T1, ALDH1A3 (Homo sapiens, UniProt P47895); experiment: fluorimetric NADH dehydrogenase assay, […] hexanal, IC50 curve; type: biochemical; conditions: read-out: IC50 (μM) ± SE ALDH1A3
# T1 construct: recombinant, N-terminal (His)6 tag
# T1 sequence (P47895 2-512): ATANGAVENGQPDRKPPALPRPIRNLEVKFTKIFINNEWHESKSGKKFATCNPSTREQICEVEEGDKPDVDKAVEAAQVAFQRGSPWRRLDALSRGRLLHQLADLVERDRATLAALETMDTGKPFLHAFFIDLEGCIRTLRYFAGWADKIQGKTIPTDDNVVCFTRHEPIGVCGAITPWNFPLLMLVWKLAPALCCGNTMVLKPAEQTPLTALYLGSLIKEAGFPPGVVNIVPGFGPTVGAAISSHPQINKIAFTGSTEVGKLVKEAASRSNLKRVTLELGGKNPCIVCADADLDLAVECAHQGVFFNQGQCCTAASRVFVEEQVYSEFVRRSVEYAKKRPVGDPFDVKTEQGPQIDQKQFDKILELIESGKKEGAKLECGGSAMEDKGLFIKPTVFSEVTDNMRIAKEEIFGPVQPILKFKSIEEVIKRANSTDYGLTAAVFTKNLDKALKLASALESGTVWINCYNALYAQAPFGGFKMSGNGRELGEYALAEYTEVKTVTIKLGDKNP
# ALDH1A3 [2] = biological target: T1, ALDH1A3; experiment: fluorimetric NADH assay, single point […], […] hexanal (near Km); type: biochemical; conditions: read-out: Remaining Activity ± SE (%) at 10 μM Compound / ALDH1A3 / [S] near Km (10 μM Hex)
IC50 (ALDH1A3 [1]) [µM],remaining activity at 10 µM (ALDH1A3 [2]) [%],Compound
0.23 ± 0.05,,"O=Cc1ccc(OCc2ccc(Cl)cc2)cc1 [ABMM-15, 4-((4-Chlorobenzyl)oxy)benzaldehyde]"
1.29 ± 0.1,,"COc1cc(C=O)ccc1OCc1ccc(Cl)cc1 [ABMM-16, 4-((4-Chlorobenzyl)oxy)-3-methoxybenzaldehyde]"
,16 ± 3.4,"COc1cc(C=O)cc(OC)c1OC(=O)c1ccc(F)cc1 [ABMM-18, 4-Formyl-2,6-dimethoxyphenyl 4-Fluorobenzoate]"
,21.07 ± 0.1,"COc1cc(C=O)ccc1OC(=O)c1ccc(Cl)cc1 [ABMM-1, 4-Formyl-2-methoxyphenyl 4-Chlorobenzoate]"
